# Results reported in patent US20260176320A1, “MODULATORS OF G-PROTEIN COUPLED RECEPTORS” (priority 2018, published 2026).
# Like-named read-outs stand apart in the source and are kept apart here. Square brackets hold non-standard residues; d marks the D form. Peptide text beside a SMILES is read from it. * marks the point of attachment. X1 = O=C(CSCC(=O)*)NCCN1C(=O)c2ccccc2C1=O; Aib = CC(C)(N)C(=O)O
# Legend:
# Assay type in all cases: cell-based
# [1] = biological target: T1, GIP-R (Homo sapiens, UniProt P48546); assay: HitHunter cAMP assay (GIP-R); conditions: for Emax: read-out: (Emax) GIP-R
# T1 sequence (P48546 22-466): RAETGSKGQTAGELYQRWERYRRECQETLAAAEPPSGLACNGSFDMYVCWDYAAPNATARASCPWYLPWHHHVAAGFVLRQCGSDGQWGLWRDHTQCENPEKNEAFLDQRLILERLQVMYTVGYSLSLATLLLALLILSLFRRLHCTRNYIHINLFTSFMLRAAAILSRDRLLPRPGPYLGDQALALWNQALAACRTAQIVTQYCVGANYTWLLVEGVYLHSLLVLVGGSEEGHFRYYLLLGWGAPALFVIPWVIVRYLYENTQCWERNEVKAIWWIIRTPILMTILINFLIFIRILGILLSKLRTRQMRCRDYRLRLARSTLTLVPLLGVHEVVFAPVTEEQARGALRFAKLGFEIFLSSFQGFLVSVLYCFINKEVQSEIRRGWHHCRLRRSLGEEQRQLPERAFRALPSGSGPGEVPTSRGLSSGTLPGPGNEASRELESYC
# In short: (§1)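 Duplicate 22-point, 2-fold agonist titrations applied to receptor-expressing suspension cells in IBMX-containing HBSS; 30 min RT stimulation. Read: luminescent cAMP immunocompetition after O/N dark incubation.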
# [2] = biological target: T2, GLP-1R (Homo sapiens, UniProt P43220); assay: PathHunter β-arrestin assay
# T2 sequence (P43220 24-463): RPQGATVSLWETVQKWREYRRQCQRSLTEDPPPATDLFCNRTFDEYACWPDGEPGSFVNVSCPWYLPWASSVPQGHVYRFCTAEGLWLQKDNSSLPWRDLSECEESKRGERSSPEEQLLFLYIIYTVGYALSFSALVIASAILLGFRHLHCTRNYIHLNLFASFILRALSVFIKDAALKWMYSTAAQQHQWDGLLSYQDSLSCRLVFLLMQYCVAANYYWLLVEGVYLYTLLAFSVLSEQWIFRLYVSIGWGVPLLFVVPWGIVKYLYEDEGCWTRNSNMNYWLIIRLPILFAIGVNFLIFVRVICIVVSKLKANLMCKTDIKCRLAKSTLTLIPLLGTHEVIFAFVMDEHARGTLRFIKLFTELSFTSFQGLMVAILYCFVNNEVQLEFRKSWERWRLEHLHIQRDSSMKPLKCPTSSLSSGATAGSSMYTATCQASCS
# In short: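 Following a 90 min agonist exposure at 37 °C in 0.2% BSA medium, β-arrestin coupling was detected by chemiluminescence after 3 h at room temperature.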
# [3] = biological target: T2, GLP-1R; assay: HitHunter cAMP assay (GLP-1R); conditions: for Emax: read-out: (Emax) GLP-1R
# In short: as §1
SMILES,"EC50 ([1]; EC50 GIP-R/nM, Table 3, cAMP) [nM]","EC50 ([1]; EC50 GIP-R/nM, Table 3A, cAMP) [nM]","Emax ([1]; Table 3, cAMP) [%]","Emax ([1]; Table 3A, cAMP) [%]",EC50 [2] [nM],"EC50 ([3]; EC50 GLP-1R/nM, Table 3, cAMP) [nM]","EC50 ([3]; EC50 GLP-1R/nM, Table 3A, cAMP) [nM]","Emax ([3]; Table 3, cAMP) [%]","Emax ([3]; Table 3A, cAMP) [%]",Emax [1] [%],EC50 [3] [nM],"(Emax) GLP-1R ([3]; Table 3A, cAMP)",Emax [3] [%],"EC50 ([3]; read-out: EC50 GLP-1R/nM, Table 3A, cAMP) [nM]","EC50 ([1]; Table 3, cAMP, read-out: EC50 GIP-R/nM) [nM]","EC50 ([1]; Table 3A, cAMP, read-out: EC50 GIP-R/nM) [nM]","EC50 ([2]; PathHunter β-arrestin assay, read-out: β-arrestin activity EC50) [nM]","EC50 ([3]; Table 3, cAMP, read-out: EC50 GLP-1R/nM) [nM]","EC50 ([3]; Table 3A, cAMP, read-out: EC50 GLP-1R/nM) [nM]"
CC[C@H](C)[C@H](NC(=O)[C@H](CO)NC(=O)[C@H](Cc1ccc(O)cc1)NC(=O)[C@H](CC(=O)O)NC(=O)[C@H](CO)NC(=O)[C@@H](NC(=O)[C@H](Cc1ccccc1)NC(=O)[C@@H](NC(=O)CNC(=O)[C@H](CCC(=O)O)NC(=O)CSCC(=O)NCCN1C(=O)c2ccccc2C1=O)[C@@H](C)O)[C@@H](C)O)C(=O)N[C@@H](Cc1ccc(O)cc1)C(=O)N[C@@H](CC(C)C)C(=O)N[C@@H](CC(=O)O)C(=O)N[C@@H](CCCCN)C(=O)N[C@@H](CCC(N)=O)C(=O)N[C@@H](C)C(=O)N[C@H](C(=O)NC(C)(C)C(=O)N[C@@H](CCC(=O)O)C(=O)N[C@@H](Cc1ccccc1)C(=O)N[C@H](C(=O)N[C@@H](CC(N)=O)C(=O)N[C@@H](Cc1c[nH]c2ccccc12)C(=O)N[C@@H](CC(C)C)C(=O)N[C@@H](CC(C)C)C(=O)N[C@@H](C)C(=O)NCC(=O)NCC(=O)N1CCC[C@H]1C(=O)N[C@@H](CO)C(=O)N[C@@H](CO)C(=O)NCC(=O)N[C@@H](C)C(=O)N1CCC[C@H]1C(=O)N1CCC[C@H]1C(=O)N1CCC[C@H]1C(=O)N[C@@H](CO)C(=O)N[C@@H](CCCCN)C(N)=O)[C@@H](C)CC)C(C)C [Compound 133] (X1-EGTFTSDYSIYLDKQAV[Aib]EFINWLLAGGPSSGAPPPSK-NH2),0.1 to 1,0.1 to 1,104,104,> 1000,1 to 10,1 to 10,98,98,,,,,,,,,,
CC[C@H](C)[C@H](NC(=O)[C@H](CO)NC(=O)[C@H](Cc1ccc(O)cc1)NC(=O)[C@H](CC(=O)O)NC(=O)[C@H](CO)NC(=O)[C@@H](NC(=O)[C@H](Cc1ccccc1)NC(=O)[C@@H](NC(=O)CNC(=O)[C@H](CCC(=O)O)NC(=O)C1(C(=O)NCCN2C(=O)CSC2=O)CCC1)[C@@H](C)O)[C@@H](C)O)C(=O)N[C@@H](Cc1ccc(O)cc1)C(=O)N[C@@H](CC(C)C)C(=O)N[C@@H](CC(=O)O)C(=O)N[C@@H](CCCCN)C(=O)N[C@@H](CCC(N)=O)C(=O)N[C@@H](C)C(=O)N[C@@H](C)C(=O)NC(C)(C)C(=O)N[C@@H](CCC(=O)O)C(=O)N[C@@H](Cc1ccccc1)C(=O)N[C@H](C(=O)N[C@@H](CC(N)=O)C(=O)N[C@@H](Cc1c[nH]c2ccccc12)C(=O)N[C@@H](CC(C)C)C(=O)N[C@@H](CC(C)C)C(=O)N[C@@H](C)C(=O)NCC(=O)NCC(=O)N1CCC[C@H]1C(=O)N[C@@H](CO)C(=O)N[C@@H](CO)C(=O)NCC(=O)N[C@@H](C)C(=O)N1CCC[C@H]1C(=O)N1CCC[C@H]1C(=O)N1CCC[C@H]1C(=O)N[C@@H](CO)C(=O)N[C@@H](CCCCN)C(N)=O)C(C)C [Compound 134],10 to 100,10 to 100,,,10 to 1000,,,,,30,< 0.1,103-108%,103 to 108,< 0.1,,,,,
CC[C@H](C)[C@H](NC(=O)[C@H](CO)NC(=O)[C@H](Cc1ccc(O)cc1)NC(=O)[C@H](CC(=O)O)NC(=O)[C@H](CO)NC(=O)[C@@H](NC(=O)[C@H](Cc1ccccc1)NC(=O)[C@@H](NC(=O)CNC(=O)[C@H](CCC(=O)O)NC(=O)C1(C(=O)NCCN2C(=O)CSC2=O)CC1)[C@@H](C)O)[C@@H](C)O)C(=O)N[C@@H](Cc1ccc(O)cc1)C(=O)N[C@@H](CC(C)C)C(=O)N[C@@H](CC(=O)O)C(=O)N[C@@H](CCCCN)C(=O)N[C@@H](CCC(N)=O)C(=O)N[C@@H](C)C(=O)N[C@@H](C)C(=O)NC(C)(C)C(=O)N[C@@H](CCC(=O)O)C(=O)N[C@@H](Cc1ccccc1)C(=O)N[C@H](C(=O)N[C@@H](CC(N)=O)C(=O)N[C@@H](Cc1c[nH]c2ccccc12)C(=O)N[C@@H](CC(C)C)C(=O)N[C@@H](CC(C)C)C(=O)N[C@@H](C)C(=O)NCC(=O)NCC(=O)N1CCC[C@H]1C(=O)N[C@@H](CO)C(=O)N[C@@H](CO)C(=O)NCC(=O)N[C@@H](C)C(=O)N1CCC[C@H]1C(=O)N1CCC[C@H]1C(=O)N1CCC[C@H]1C(=O)N[C@@H](CO)C(=O)N[C@@H](CCCCN)C(N)=O)C(C)C [Compound 135],,,15 to 22,15 to 22,,,,106 to 111,106 to 111,,,,,,10 to 100,10 to 1000,> 1000,< 1,< 1
CC[C@H](C)[C@H](NC(=O)[C@H](CO)NC(=O)[C@H](Cc1ccc(O)cc1)NC(=O)[C@H](CC(=O)O)NC(=O)[C@H](CO)NC(=O)[C@@H](NC(=O)[C@H](Cc1ccccc1)NC(=O)[C@@H](NC(=O)CNC(=O)[C@H](CCC(=O)O)NC(=O)CSCC(=O)NCCn1ncc2ccccc2c1=O)[C@@H](C)O)[C@@H](C)O)C(=O)N[C@@H](Cc1ccc(O)cc1)C(=O)N[C@@H](CC(C)C)C(=O)N[C@@H](CC(=O)O)C(=O)N[C@@H](CCCCN)C(=O)N[C@@H](CCC(N)=O)C(=O)N[C@@H](C)C(=O)N[C@@H](C)C(=O)NC(C)(C)C(=O)N[C@@H](CCC(=O)O)C(=O)N[C@@H](Cc1ccccc1)C(=O)N[C@H](C(=O)N[C@@H](CC(N)=O)C(=O)N[C@@H](Cc1c[nH]c2ccccc12)C(=O)N[C@@H](CC(C)C)C(=O)N[C@@H](CC(C)C)C(=O)N[C@@H](C)C(=O)NCC(=O)NCC(=O)N1CCC[C@H]1C(=O)N[C@@H](CO)C(=O)N[C@@H](CO)C(=O)NCC(=O)N[C@@H](C)C(=O)N1CCC[C@H]1C(=O)N1CCC[C@H]1C(=O)N1CCC[C@H]1C(=O)N[C@@H](CO)C(=O)N[C@@H](CCCCN)C(N)=O)C(C)C [Compound 136],0.1 to 1,0.1 to 1,105,105,> 1000,10 to 100,10 to 100,91 to 94,91 to 94,,,,,,,,,,
CC[C@H](C)[C@H](NC(=O)[C@H](CO)NC(=O)[C@H](Cc1ccc(O)cc1)NC(=O)[C@H](CC(=O)O)NC(=O)[C@H](CO)NC(=O)[C@@H](NC(=O)[C@H](Cc1ccccc1)NC(=O)[C@@H](NC(=O)CNC(=O)[C@H](CCC(=O)O)NC(=O)CSCC(=O)NCCn1c(C)cc(C)nc1=O)[C@@H](C)O)[C@@H](C)O)C(=O)N[C@@H](Cc1ccc(O)cc1)C(=O)N[C@@H](CC(C)C)C(=O)N[C@@H](CC(=O)O)C(=O)N[C@@H](CCCCN)C(=O)N[C@@H](CCC(N)=O)C(=O)N[C@@H](C)C(=O)N[C@@H](C)C(=O)NC(C)(C)C(=O)N[C@@H](CCC(=O)O)C(=O)N[C@@H](Cc1ccccc1)C(=O)N[C@H](C(=O)N[C@@H](CC(N)=O)C(=O)N[C@@H](Cc1c[nH]c2ccccc12)C(=O)N[C@@H](CC(C)C)C(=O)N[C@@H](CC(C)C)C(=O)N[C@@H](C)C(=O)NCC(=O)NCC(=O)N1CCC[C@H]1C(=O)N[C@@H](CO)C(=O)N[C@@H](CO)C(=O)NCC(=O)N[C@@H](C)C(=O)N1CCC[C@H]1C(=O)N1CCC[C@H]1C(=O)N1CCC[C@H]1C(=O)N[C@@H](CO)C(=O)N[C@@H](CCCCN)C(N)=O)C(C)C [Compound 137],10 to 100,,8,,> 1000,1 to 10,1 to 10,103,103,,,,,,,,,,
CC[C@H](C)[C@H](NC(=O)[C@H](CO)NC(=O)[C@H](Cc1ccc(O)cc1)NC(=O)[C@H](CC(=O)O)NC(=O)[C@H](CO)NC(=O)[C@@H](NC(=O)[C@H](Cc1ccccc1)NC(=O)[C@@H](NC(=O)CNC(=O)[C@H](CCC(=O)O)NC(=O)CSCC(=O)NCCN1C(=O)CCCC1=O)[C@@H](C)O)[C@@H](C)O)C(=O)N[C@@H](Cc1ccc(O)cc1)C(=O)N[C@@H](CC(C)C)C(=O)N[C@@H](CC(=O)O)C(=O)N[C@@H](CCCCN)C(=O)N[C@@H](CCC(N)=O)C(=O)N[C@@H](C)C(=O)N[C@@H](C)C(=O)NC(C)(C)C(=O)N[C@@H](CCC(=O)O)C(=O)N[C@@H](Cc1ccccc1)C(=O)N[C@H](C(=O)N[C@@H](CC(N)=O)C(=O)N[C@@H](Cc1c[nH]c2ccccc12)C(=O)N[C@@H](CC(C)C)C(=O)N[C@@H](CC(C)C)C(=O)N[C@@H](C)C(=O)NCC(=O)NCC(=O)N1CCC[C@H]1C(=O)N[C@@H](CO)C(=O)N[C@@H](CO)C(=O)NCC(=O)N[C@@H](C)C(=O)N1CCC[C@H]1C(=O)N1CCC[C@H]1C(=O)N1CCC[C@H]1C(=O)N[C@@H](CO)C(=O)N[C@@H](CCCCN)C(N)=O)C(C)C [Compound 138],1 to 10,1 to 10,81,81,> 1000,1 to 10,1 to 10,87,87,,,,,,,,,,
